ChEMBL document CHEMBL1146003, “Synthesis of 13-(substituted benzyl) berberine and berberrubine derivatives as antifungal agents” (2006)
In brackets after ≈: the same amount, converted by molar mass.

What was measured:
Type in all cases: functional
Cryptococcus neoformans = test: Antifungal activity against Cryptococcus neoformans ATCC 36556 by broth microdilution method
Clavispora lusitaniae = test: Antifungal activity against Candida lusitaniae ATCC 42720 by broth microdilution method
Aspergillus fumigatus = test: Antifungal activity against Aspergillus fumigatus ATCC 16424 by broth microdilution method
Candida albicans = test: Antifungal activity against Candida albicans ATCC 10231 by broth microdilution method
Candida tropicalis = test: Antifungal activity against Candida tropicalis ATCC 13803 by broth microdilution method
Aspergillus terreus = test: Antifungal activity against Aspergillus terreus ATCC 46941 by broth microdilution method
Pichia kudriavzevii = test: Antifungal activity against Candida krusei ATCC 6258 by broth microdilution method

| MIC (Cryptococcus neoformans) [µg/mL] | MIC (Clavispora lusitaniae) [µg/mL] | MIC (Aspergillus fumigatus) [µg/mL] | MIC (Candida albicans) [µg/mL] | MIC (Candida tropicalis) [µg/mL] | MIC (Aspergillus terreus) [µg/mL] | MIC (Pichia kudriavzevii) [µg/mL] | SMILES |
| --- | --- | --- | --- | --- | --- | --- | --- |
| 32 | 128 | > 128 | 128 | 64 | > 128 | 64 | COc1cc(Cc2c3[n+](cc4c(OC)c(OC)ccc24)CCc2cc4c(cc2-3)OCO4)cc(OC)c1OC.[Cl-] |
| 64 | 128 | > 128 | > 128 | 128 | > 128 | 128 | COc1ccc2c(Cc3cc(F)c(F)c(F)c3)c3[n+](cc2c1O)CCc1cc2c(cc1-3)OCO2.[Cl-] |
| 8 | 8 | > 128 | 16 | 16 | > 128 | 32 | COc1ccc2c(Cc3ccc(C(C)(C)C)cc3)c3[n+](cc2c1O)CCc1cc2c(cc1-3)OCO2.[Cl-] |
| 16 | 32 | > 128 | 16 | 8 | > 128 | 16 | COc1ccc2c(Cc3ccc(OC(F)(F)F)cc3)c3[n+](cc2c1OC)CCc1cc2c(cc1-3)OCO2.[Cl-] |
| 16 | 32 | > 128 | 32 | 16 | > 128 | 32 | COc1ccc2c(Cc3ccc(C(F)(F)F)cc3)c3[n+](cc2c1OC)CCc1cc2c(cc1-3)OCO2.[Cl-] |
| 4 | 8 | 64 | 4 | 2 | 64 | 8 | COc1ccc2c(Cc3ccc(C(C)(C)C)cc3)c3[n+](cc2c1OC)CCc1cc2c(cc1-3)OCO2.[Cl-] |
| 32 | 128 | > 128 | > 128 | 128 | > 128 | > 128 | COc1cc(Cc2c3[n+](cc4c(O)c(OC)ccc24)CCc2cc4c(cc2-3)OCO4)cc(OC)c1OC.[Cl-] |
| 16 | 64 | > 128 | 128 | 64 | > 128 | 64 | COc1ccc2c(Cc3ccc(C(F)(F)F)cc3)c3[n+](cc2c1O)CCc1cc2c(cc1-3)OCO2.[Cl-] |
| 64 | > 128 | > 128 | 128 | 16 | > 128 | 32 | COc1ccc2cc3[n+](cc2c1OC)CCc1cc2c(cc1-3)OCO2.[Cl-] [BERBERINE CHLORIDE] |

More lines, now with the values behind:

| SMILES | MIC (Cryptococcus neoformans) [µg/mL] | MIC (Clavispora lusitaniae) [µg/mL] | MIC (Aspergillus fumigatus) [µg/mL] | MIC (Candida albicans) [µg/mL] | MIC (Candida tropicalis) [µg/mL] | MIC (Aspergillus terreus) [µg/mL] | MIC (Pichia kudriavzevii) [µg/mL] |
| --- | --- | --- | --- | --- | --- | --- | --- |
| COc1ccc2c(Cc3cc(F)c(F)c(F)c3)c3[n+](cc2c1OC)CCc1cc2c(cc1-3)OCO2.[Cl-] | 64 | 128 | > 128 | 128 | 64 | > 128 | 64 |
| COc1ccc2c(Cc3ccc(C(C)C)cc3)c3[n+](cc2c1O)CCc1cc2c(cc1-3)OCO2.[Cl-] | 4 | 8 | > 128 | 16 | 16 | > 128 | 16 |
| COc1ccc2c(Cc3ccc(C(C)C)cc3)c3[n+](cc2c1OC)CCc1cc2c(cc1-3)OCO2.[Cl-] | 4 | 8 | 64 | 4 | 1 | 32 | 4 |
| COc1ccc2c(Cc3cc(F)cc(F)c3)c3[n+](cc2c1O)CCc1cc2c(cc1-3)OCO2.[Cl-] | 32 | 128 | > 128 | > 128 | 128 | > 128 | 128 |
| C[C@@H]1[C@H](O)[C@@H](C)/C=C/C=C/C=C/C=C/C=C/C=C/C=C/[C@H](O[C@@H]2O[C@H](C)[C@@H](O)[C@H](N)[C@@H]2O)C[C@@H]2O[C@](O)(C[C@@H](O)C[C@@H](O)[C@H](O)CC[C@@H](O)C[C@@H](O)CC(=O)O[C@H]1C)C[C@H](O)[C@H]2C(=O)O [AMPHOTERICIN B] | 0.25 (≈ 0.271 µM) | 1 (≈ 1.08 µM) | 1 (≈ 1.08 µM) | 0.5 (≈ 0.541 µM) | 0.5 (≈ 0.541 µM) | 16 (≈ 17.3 µM) | 0.5 (≈ 0.541 µM) |
| COc1ccc2c(Cc3ccc(OC(F)(F)F)cc3)c3[n+](cc2c1O)CCc1cc2c(cc1-3)OCO2.[Cl-] | 16 | 32 | > 128 | 64 | 32 | > 128 | 32 |
| COc1ccc2cc3[n+](cc2c1O)CCc1cc2c(cc1-3)OCO2 [BERBERRUBINE] | > 128 | > 128 | > 128 | > 128 | 128 | > 128 | > 128 |
| COc1ccc2c(Cc3cc(F)cc(F)c3)c3[n+](cc2c1OC)CCc1cc2c(cc1-3)OCO2.[Cl-] | 32 | 64 | > 128 | 128 | 32 | > 128 | 64 |
